Source: PubChem BioAssay (NCI)
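All cell lines were grown in 96-well plates and treated with compound for 48 hours. TGI: concentration producing complete growth inhibition.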

Experiments:
Test in all cases: growth of human tumour cells (NCI), 48 h
SF-268 CNS = test system: SF-268 CNS
HOP-62 NSCLC = test system: HOP-62 NSCLC
SF-295 CNS = test system: SF-295 CNS
T-47D breast = test system: T-47D breast
TK-10 renal = test system: TK-10 renal
NCI-H23 lung = test system: NCI-H23 lung
SNB-19 CNS = test system: SNB-19 CNS
MOLT-4 leukemia = test system: MOLT-4 leukemia
MDA-MB-231 breast = test system: MDA-MB-231 breast
M14 melanoma = test system: M14 melanoma
SK-OV-3 ovarian = test system: SK-OV-3 ovarian
LOX IMVI melanoma = test system: LOX IMVI melanoma
K-562 leukemia = test system: K-562 leukemia
RPMI-8226 leukemia = test system: RPMI-8226 leukemia
OVCAR-5 ovarian = test system: OVCAR-5 ovarian
NCI-H522 lung = test system: NCI-H522 lung
OVCAR-4 ovarian = test system: OVCAR-4 ovarian
SN12C renal = test system: SN12C renal
SK-MEL-28 melanoma = test system: SK-MEL-28 melanoma
HCC-2998 colon = test system: HCC-2998 colon
HS 578T breast = test system: HS 578T breast
OVCAR-8 ovarian = test system: OVCAR-8 ovarian
UACC-62 melanoma = test system: UACC-62 melanoma
HCT-15 colon = test system: HCT-15 colon
HT29 colon = test system: HT29 colon
COLO 205 colon = test system: COLO 205 colon
OVCAR-3 ovarian = test system: OVCAR-3 ovarian
SK-MEL-5 melanoma = test system: SK-MEL-5 melanoma
MCF7 breast = test system: MCF7 breast
SR leukemia = test system: SR leukemia
CCRF-CEM leukemia = test system: CCRF-CEM leukemia
786-0 renal = test system: 786-0 renal
MDA-MB-435 = test system: MDA-MB-435
MDA-N = test system: MDA-N
HOP-92 NSCLC = test system: HOP-92 NSCLC
U251 CNS = test system: U251 CNS
CAKI-1 renal = test system: CAKI-1 renal
NCI-H460 lung = test system: NCI-H460 lung
UACC-257 melanoma = test system: UACC-257 melanoma
EKVX NSCLC = test system: EKVX NSCLC
SNB-75 CNS = test system: SNB-75 CNS
UO-31 renal = test system: UO-31 renal
MALME-3M melanoma = test system: MALME-3M melanoma
KM12 colon = test system: KM12 colon
NCI/ADR-RES ovarian = test system: NCI/ADR-RES ovarian
SK-MEL-2 melanoma = test system: SK-MEL-2 melanoma
SW-620 colon = test system: SW-620 colon
BT-549 breast = test system: BT-549 breast
IGROV1 ovarian = test system: IGROV1 ovarian
PC-3 prostate = test system: PC-3 prostate
NCI-H226 lung = test system: NCI-H226 lung
A498 renal = test system: A498 renal
ACHN renal = test system: ACHN renal
SF-539 CNS = test system: SF-539 CNS
DU-145 prostate = test system: DU-145 prostate
RXF 393 renal = test system: RXF 393 renal
HCT-116 colon = test system: HCT-116 colon
A549 NSCLC = test system: A549 NSCLC

Measured: TGI

CCC1(O)CC(OC2CC(N(C)C)C(OC3CC(O)C(OC4CCC(=O)C(C)O4)C(C)O3)C(C)O2)c2c(cc3c(c2O)C(=O)c2c(O)ccc(O)c2C3=O)C1C(=O)OC (stereo not drawn)
< 0.01 µM: LOX IMVI melanoma | K-562 leukemia | NCI-H522 lung | SR leukemia | CAKI-1 renal | NCI-H460 lung | UO-31 renal
0.029 µM: MALME-3M melanoma
0.0282 µM: SK-MEL-5 melanoma
0.186 µM: OVCAR-3 ovarian
0.0294 µM: UACC-257 melanoma
0.393 µM: PC-3 prostate
0.0343 µM: NCI-H23 lung
0.0516 µM: M14 melanoma
2.01 µM: MCF7 breast
1.22 µM: IGROV1 ovarian
0.156 µM: HOP-62 NSCLC
0.0101 µM: MOLT-4 leukemia
0.259 µM: NCI/ADR-RES ovarian
0.441 µM: SF-295 CNS
0.0109 µM: RPMI-8226 leukemia
0.0528 µM: CCRF-CEM leukemia
0.0131 µM: COLO 205 colon
2.41 µM: SNB-19 CNS
1.18 µM: SN12C renal
0.018 µM: HCT-15 colon
0.0251 µM: MDA-N
0.116 µM: EKVX NSCLC
0.0185 µM: HOP-92 NSCLC
0.0739 µM: OVCAR-8 ovarian
0.208 µM: SF-268 CNS
0.0994 µM: KM12 colon
2.22 µM: U251 CNS
0.214 µM: OVCAR-4 ovarian
0.0148 µM: SK-MEL-2 melanoma
0.493 µM: 786-0 renal
3.56 µM: SW-620 colon
< 0.0132 µM: UACC-62 melanoma
0.0846 µM: SNB-75 CNS
0.409 µM: MDA-MB-435
< 0.0105 µM: HT29 colon
13.3 µM: SK-OV-3 ovarian
0.113 µM: MDA-MB-231 breast
1.78 µM: BT-549 breast
0.597 µM: T-47D breast
0.0339 µM: TK-10 renal
10.8 µM: OVCAR-5 ovarian
< 0.0112 µM: HCC-2998 colon
0.211 µM: SK-MEL-28 melanoma
0.384 µM: HS 578T breast

COC(=O)/C1=C/c2c([nH]c3ccccc23)/C(C(=O)OC)=C\c2c1[nH]c1ccccc21
38.9 µM: IGROV1 ovarian
22 µM: NCI-H522 lung
33.3 µM: RXF 393 renal
not listed: MOLT-4 leukemia | K-562 leukemia | RPMI-8226 leukemia | OVCAR-4 ovarian | SK-MEL-28 melanoma | HCC-2998 colon | HT29 colon | SR leukemia | CCRF-CEM leukemia | HOP-92 NSCLC | SNB-75 CNS | PC-3 prostate
> 50 µM: all other assays above

NS(=O)(=O)c1nnc(NS(=O)(=O)c2ccc(F)cc2)s1
not listed: NCI-H522 lung | HT29 colon | SNB-75 CNS | MALME-3M melanoma | IGROV1 ovarian | PC-3 prostate
> 100 µM: all other assays above
